In patent publication US4469707A, “Method for treatment of senile dementia” (Astra Lakemedel Aktiebolag, priority 1983, dated 1984):
“Also recorded” adds a separate entry of the source.

Legend:
[1] = test system: physostigmine induced tremor; assay: Potentiation of physostigmine induced tremor; assay type: in vivo; settings: mice; for Mean tremor score after pretreatment: score 0-2
Protocol: (§1) Saline was administered as a blank. The tremor intensity was assessed visually for a 60 min period starting from the injection of oxotremorine and physostigmine respectively. The following rating scores were used:
(§2) 1--moderate or discontinuous tremor of the head and forelimbs
(§3) 2--strong tremor involving the whole body

[2] = test system: tremor; assay: Tremor caused by alaproclate per se; assay type: in vivo, mice; settings: in words
Protocol: Saline was administered as a blank. The tremor intensity was assessed visually for a 60 min period starting from the injection of oxotremorine and physostigmine respectively.

[3] = test system: oxotremorine induced tremor; assay: Potentiation of oxotremorine induced tremor; assay type: in vivo; settings: mice; for Mean tremor score after pretreatment: score 0-2
Protocol: as §1, §2, §3

CC(N)C(=O)OC(C)(C)Cc1ccc(Cl)cc1 (stereo not drawn) [Alaproclate, 2-(4-chloro-phenyl)-1,1-dimethylethyl-2-aminopropanoate]
Potentiation of physostigmine induced tremor ([1]; in words): able to enhance; also recorded: potentiates | Mean tremor score after pretreatment ([1]; alaproclate 20 mg/kg i.p., 5 min after physostigmine 200 μg/kg s.c.): 0,3 | Mean tremor score after pretreatment ([1]; alaproclate 20 mg/kg i.p., 10 min after physostigmine 200 μg/kg s.c.): 0,8 | Mean tremor score after pretreatment ([1]; alaproclate 20 mg/kg i.p., 15 min after physostigmine 200 μg/kg s.c.): 0,8 | Mean tremor score after pretreatment ([1]; alaproclate 40 mg/kg i.p., 5 min after physostigmine 200 μg/kg s.c.): 0,3 | Mean tremor score after pretreatment ([1]; alaproclate 40 mg/kg i.p., 10 min after physostigmine 200 μg/kg s.c.): 1,0 | Mean tremor score after pretreatment ([1]; alaproclate 40 mg/kg i.p., 15 min after physostigmine 200 μg/kg s.c.): 0,7 | Mean tremor score after pretreatment ([1]; alaproclate 40 mg/kg i.p., 30 min after physostigmine 200 μg/kg s.c.): 0,3 | Mean tremor score after pretreatment ([1]; alaproclate 60 mg/kg i.p., 5 min after physostigmine 200 μg/kg s.c.): 0,7 | Mean tremor score after pretreatment ([1]; alaproclate 60 mg/kg i.p., 10 min after physostigmine 200 μg/kg s.c.): 1,3 | Mean tremor score after pretreatment ([1]; alaproclate 60 mg/kg i.p., 15 min after physostigmine 200 μg/kg s.c.): 0,8 | Mean tremor score after pretreatment ([1]; alaproclate 60 mg/kg i.p., 30 min after physostigmine 200 μg/kg s.c.): 0,7 | Tremor caused by the compound per se [2]: does not cause tremor | Potentiation of oxotremorine induced tremor ([3]; in words): able to enhance; also recorded: potentiates | Mean tremor score after pretreatment ([3]; alaproclate 20 mg/kg i.p., 10 min after oxotremorine 100 μg/kg s.c.): 0,7 | Mean tremor score after pretreatment ([3]; alaproclate 20 mg/kg i.p., 15 min after oxotremorine 100 μg/kg s.c.): 1,0 | Mean tremor score after pretreatment ([3]; alaproclate 20 mg/kg i.p., 30 min after oxotremorine 100 μg/kg s.c.): 0,8 | Mean tremor score after pretreatment ([3]; alaproclate 40 mg/kg i.p., 5 min after oxotremorine 100 μg/kg s.c.): 0,3 | Mean tremor score after pretreatment ([3]; alaproclate 40 mg/kg i.p., 10 min after oxotremorine 100 μg/kg s.c.): 1,0 | Mean tremor score after pretreatment ([3]; alaproclate 40 mg/kg i.p., 15 min after oxotremorine 100 μg/kg s.c.): 1,3 | Mean tremor score after pretreatment ([3]; alaproclate 40 mg/kg i.p., 30 min after oxotremorine 100 μg/kg s.c.): 1,2 | Mean tremor score after pretreatment ([3]; alaproclate 40 mg/kg i.p., 60 min after oxotremorine 100 μg/kg s.c.): 0,5 | Mean tremor score after pretreatment ([3]; alaproclate 60 mg/kg i.p., 5 min after oxotremorine 100 μg/kg s.c.): 0,1 | Mean tremor score after pretreatment ([3]; alaproclate 60 mg/kg i.p., 10 min after oxotremorine 100 μg/kg s.c.): 1,0 | Mean tremor score after pretreatment ([3]; alaproclate 60 mg/kg i.p., 15 min after oxotremorine 100 μg/kg s.c.): 1,5 | Mean tremor score after pretreatment ([3]; alaproclate 60 mg/kg i.p., 30 min after oxotremorine 100 μg/kg s.c.): 1,6 | Mean tremor score after pretreatment ([3]; alaproclate 60 mg/kg i.p., 60 min after oxotremorine 100 μg/kg s.c.): 1,0
